The record followed here is paper PMC3401907, “Cellular Uptakes, Biostabilities and Anti-miR-210 Activities of Chiral Arginine-PNAs in Leukaemic K562 Cells” (Chembiochem, 2012).

One experiment relates to K562 cells. Nature of the experiment: Mithramycin-induced erythroid differentiation (benzidine-positive cells). The class given is cell-based, human. As to conditions: MTH 15 nM, PNA 2 μM, benzidine-positive cells after 5 days of induction, three independent experiments. How it is done: In order to evaluate effects on mithramycin-induced cellular differentiation, K562 cells were treated with MTH in the presence of pept-1, PNA1, PNA2 and PNA4 (each 2 μM). The proportions of benzidine-positive cells were determined after 5 days of induction.
Human cell lines and culture conditions: Human leukaemia K562 cells were cultured under humidified CO2 (5 %)/air in RPMI 1640 medium (Sigma) supplemented with foetal bovine serum (FBS, 10 %, Analitical de Mori, Milan, Italy), penicillin (50 units mL^−1) and streptomycin (50 μg mL^−1).[26] Mithramycin (MTH) was from Sigma. Stock solutions of MTH (100 μM) were stored at −20 °C in the dark and diluted immediately before use. Treatment of K562 cells with MTH was carried out by addition of the appropriate drug concentrations at the beginning of the cultures (cells were seeded at 30 000 mL^−1). The medium was not changed during the induction period. To determine antiproliferative activity, cell growth was studied by determining the cell number per mL with a Z1 Coulter Counter (Coulter Electronics, Hialeah, FL, USA). Erythroid differentiated K562 cells containing haemoglobin were detected by specific reaction with a benzidine/hydrogen peroxide solution as reported elsewhere.[26] The final concentration of benzidine was 0.2 % in glacial acetic acid (5 M) and H2O2 (10 %).

Experiment [1] deals with let-7c, miR-10a, miR-93, miR-99b, miR-126, miR-149, miR-424, miR-494, miR-483-5p and miR-625. Description: Content of other microRNAs by RT-PCR (sequence specificity). The class given is cell-based, human. The following applies: n=3. As to the method: Figure 5 A), B) Effects of treatment with PNA1, PNA2, PNA3, PNA4, PNA5 and PNA6 molecules on miR-210 contents in cells cultured for 24 h A) in the absence (□), and B) in the presence (▪) of MTH (15 nM). Data are reported as arbitrary units relative to cells treated with pept-1 (□) or with pept-1 and MTH (▪). C) Effects of treatment with PNA4 on miRNA contents in cells cultured for 24 h in the presence of MTH; RT-PCR was performed with a TaqMan MicroRNA Reverse Transcription Kit (Applied Biosystems) for let-7c, miR-10a, miR-93, miR-99b, miR-126, miR-149, miR-424, miR-483-5p and miR-625. Data are reported as arbitrary units relative to untreated cells (average ±SD; n=3).
Real-time quantitative PCR: For microRNA quantification with real-time RT-PCR reagents, the primers and probes were obtained from Applied Biosystems. […] Relative expression was calculated by the comparative cycle threshold method and U6 microRNA was used as reference gene to normalise all RNA samples, because it is constant in the assayed samples by miR-profiling and quantitative RT-PCR analysis as previously reported.[25]

Experiment [2] relates to DNA2 (mismatched DNA, G→T). Description: Melting temperature (Tm) of PNA:DNA duplexes, single-mismatch DNA. The format is binding. An excerpt:
Sequence selectivity is a very important issue in view of the use of PNAs in cellular systems, because partial hybridisation might occur with other unrelated miRNAs or, most importantly, with mRNA targets. We analysed the sequence selectivities of our PNAs with stricter models (DNA2 and RNA2) involving single base mismatches (G→T or G→U) located in the middle of the target sequences. In each case the sequence selectivity was confirmed by significant lowering of the melting temperature. The ranges of ΔTm due to the presence of these single mismatches were 8–21 °C for DNA, with the maximum drop in the case of PNA4 and the minimum observed in that of PNA6. For the latter it should be considered that the mismatch was facing the last chiral monomer, preventing the cooperative effect observed in the case of 2D-modifed highly constrained PNA.[22]
Measurements of Tm values: The Tm values were determined with a Lambda Bio 20 spectrophotometer and a Peltier PTP6 temperature programmer. Thermal denaturation profiles were measured by monitoring the absorbance at 260 nm from 18 to 90 °C with a heating rate of 1 °C min^−1 and recording every 0.1 °C. Measurement conditions: [PNA]=[DNA] or [RNA]=5 μM in PBS buffer [pH 7.0, NaCl (100 mM), NaH2PO4⋅H2O (10 mM), EDTA (0.1 mM)] with urea (5 M).

The test system of experiment [3] is DNA1 (full-match antiparallel DNA). Nature of the experiment: Melting temperature (Tm) of PNA:DNA duplexes, full-match DNA. The class given is binding. As to conditions: UV absorbance at 260 nm, strand concentration 5 μM. How it is done: Measurements of Tm values: The Tm values were determined with a Lambda Bio 20 spectrophotometer and a Peltier PTP6 temperature programmer. Thermal denaturation profiles were measured by monitoring the absorbance at 260 nm from 18 to 90 °C with a heating rate of 1 °C min^−1 and recording every 0.1 °C. […]

A further experiment has as its system miR-210. Description: miR-210 content by RT-qPCR analysis. The format is cell-based, human. The following applies: K562 cells, 24 h. As to the method: K562 cells were treated with 15 nM mithramycin in the presence of a PNA (2 μM), and after 24 h RNA was isolated and miR-210 was assayed by RT-qPCR analysis. This type of test has been used to evaluate miR content in many studies because it allows the free-miR content to be evaluated. […] Figure 5 A and B reports the obtained data, showing that inhibition of miR bioavailability was induced both with the modified PNA and with the peptide-conjugated one, whereas in the case of PNA1 it was unchanged. […] This might be related to inhibition of pre-miR maturation or to unavailability of the miR to the qRT-PCR analysis due to strong complexation with the PNA. In either case the bioavailability of the miR for targeting other genes should be reduced.
Transfection procedures: Anti-miR-210 PNAs were directly added to the cellular medium to reach the indicated final concentrations. K562 cells were cultured in 24-well plates starting from the initial density of 30 000 cells per mL. MTH was administrated together with anti-miR PNAs.
RNA extraction: Cells were isolated by centrifugation at 1500 rpm for 10 min at 4 °C, washed in PBS and lysed in Tri-reagent (Sigma–Aldrich) according to the manufacturer's instructions. The isolated RNA was washed once with cold ethanol (75 %), dried and dissolved in ultrapure nuclease-free water.
Real-time quantitative PCR: For microRNA quantification with real-time RT-PCR reagents, the primers and probes were obtained from Applied Biosystems. Reverse transcriptase (RT) reactions were performed with a TaqMan MicroRNA Reverse Transcription Kit (Applied Biosystems) for hsa-miR-210, hsa-miR-10a, hsa-miR-93, hsa-miR-99b, hsa-miR-126, hsa-miR-149, hsa-miR-424, hsa-miR-483-5p, hsa-miR-625, hsa-let-7c and the iQTM5 real-time PCR System Instrument (Bio-Rad). Relative expression was calculated by the comparative cycle threshold method and U6 microRNA was used as reference gene to normalise all RNA samples, because it is constant in the assayed samples by miR-profiling and quantitative RT-PCR analysis as previously reported.[25]
Background: Real-time PCR tracks product formation cycle by cycle.

Bounds are passed on as bounds.

With “H-C5LArgC5LArgG5LArgC5LArgT5LArgG5LArgT5LArgC5LArgACACGCACAG-NH2 [PNA4, 5L Arg (C5) backbone-modified 18-mer PNA, model 2, stretch of consecutive modified monomers]”, the “effect on MTH-induced erythroid differentiation” value in the experiment on K562 cells is “able to inhibit erythroid differentiation”. Further, the “effect on miR-149 hybridisation signal” value in experiment [1] (K562 cells 24 h in the presence of MTH, RT-PCR) is listed as “inhibition of the hybridisation signal”. The “effect on hybridisation availability of other miRs” value in experiment [1] (K562 cells 24 h with MTH, let-7c, miR-10a, miR-93, miR-99b, miR-126, miR-424, miR-494, miR-483-5p, miR-625) is on record as “no major effects”. Moreover, the “ΔTm due to single mismatch, DNA” value in experiment [2] (DNA1 vs DNA2 (G→T in the middle of the target), urea 5 M) came out at 21 °C. The “Tm, DNA2 in urea (5 M)” value in experiment [2] (single mismatch, UV absorbance at 260 nm, PBS buffer pH 7 with urea 5 M, strand concentration 5 μM) turned out to be 56 °C. The “Tm, DNA1 in urea (5 M)” value in experiment [3] (PBS buffer pH 7 (NaCl 100 mM, NaH2PO4 10 mM, EDTA 0.1 mM) with urea 5 M) stood at 77 °C. Besides, the “Tm, DNA1 in water” value in experiment [3] (PBS buffer pH 7, no urea, 18 to 90 °C at 1 °C/min) was >90 °C. In addition, the “miR-210 inhibition upon treatment with mithramycin” value in the experiment on miR-210 (PNA 2 μM with MTH 15 nM, relative to pept-1 and MTH) is given as “best results”. In addition, the “inhibition of miR-210 bioavailability (miR-210 content)” value in the experiment with miR-210 (PNA 2 μM, Figure 5 A and B, relative to pept-1) is recorded as “Stronger inhibition”.
